According to publication PMC6928678, “Simplified Head-to-Tail Cyclic Polypeptides as Biomaterial-Associated Antimicrobials with Endotoxin Neutralizing and Anti-Inflammatory Capabilities” (International Journal of Molecular Sciences, 2019):
In brackets after ≈: the same amount, converted by molar mass. Where a SMILES comes first, the peptide text is derived from it. [ ]: non-standard residue; d: D form. Orn = NCCC[C@H](N)C(=O)O

Columns and labels:
[1] = system: E. coli 25922; assay: microbe, parasite or virus in culture; format: cell-based, Escherichia coli; conditions: 25922, 20 h
Description: (§1) The test strains, including Gram-negative E. coli ATCC25922, E. coli ATCC 1005, S. typhimurium C7731, P. aeruginosa ATCC 27853, S. Typhimurium 14028, Gram-positive S. aureus ATCC29213, S. aureus ATCC 25923, S. epidermidis ATCC 12228 and S. aureus 43300, were obtained from the School of Veterinary Medicine, Northeast Agricultural University (Harbin, China).
(§2) Briefly, the bacteria were incubated overnight at 37 °C with constant shaking at 220 rpm, then were transferred to new MH broth (MHB) medium until they reached the logarithmic phase of growth. The bacteria were then diluted to 10^5 (CFU)/mL in MHB. The peptides were dissolved and diluted in 0.01% acetic acid and 0.2% bovine serum albumin (BSA) at various concentrations (0.5–128 μM) in each well of sterile 96-well plates and incubated for 20 h at 37 °C. […] The test was repeated three times.

[2] = system: E. coli UB 1005; assay: microbe, parasite or virus in culture; format: cell-based, Escherichia coli; conditions: UB 1005, 20 h
Description: as §1, §2

[3] = system: E. coli ATCC 25,922; assay: Flow cytometry membrane integrity assay (PI uptake); format: cell-based; conditions: PI 10 ug/mL, 30 min at 4 °C
Description: Figure 7 Flow cytometric analysis. Exponential phase E. coli cells were treated with GS, OIR3 and cellular fluorescence was analyzed by flow cytometry.
Membrane integrity assay. […] FACS flow cytometer (Becton–Dickinson, Franklin Lake, New Jersey, USA USA) was used to obtain the data with a laser excitation wavelength of 488 nm.

[4] = system: LPS; assay: Surface plasmon resonance of peptide-LPS interaction; format: binding; conditions: peptide on CM5 chip, LPS 3.125–50 µg/mL, 20 mM Tris, 100 mM NaCl, pH 7.4
Description: Figure 3 (A) The combining ability of OIR3 and gramicidin S (GS; 0.5 μM, 1 μM, 2 μM, […], 8 μM, 16 μM and 32 μM) with lipopolysaccharide (LPS). (B) SPR spectroscopy of the interaction kinetics of the peptides and LPS. The peptides were immobilized on a CM5 sensor chip as a ligand, and LPS was diluted in a series of concentrations (3.125, 6.25, 12.5, 25 and 50 μg/mL). Data shown are three independent experiments.
Surface plasmon resonance (SPR) is a method commonly used to study protein–protein interactions. The main advantage of SPR is that it provides the ability to measure the binding affinities and association/dissociation kinetics of complexes in real time, in a label-free environment, and using relatively small quantities of materials. Real-time binding interactions between peptides and LPS were measured by using the Biacore 3000 instrument (GE Healthcare, Waukesha, Wisconsin, USA). In […] sodium acetate buffer (pH 5.5), the cyclic antimicrobial peptides OIR3, IR3, DIR3 and GS were diluted to an optimum fixed concentration of 25.6 µM, and then covalently immobilized on the CM5 sensor chip; nearly 1100 resonant units (RU) of the peptide were captured. All measurements were performed in 20 mM Tris buffer (pH 7.4) containing 100 mM NaCl. […]

[5] = system: gram-positive strains tested; assay: organism not typed; format: cell-based; conditions: 20 h
Description: as §2

[6] = system: E. coli ATCC 25,922; assay: Swimming motility assay; format: cell-based; conditions: 0.3% agar; OIR3, IR3, DIR3 at 4 μM and 8 μM; GS at all tested concentrations (1–8 µM)
Description: Figure 10 Swimming motility of E. coli ATCC 25,922 treated with OIR3, IR3, DIR3 and GS. Swim plates were prepared using 0.3% agar and inoculated from overnight cultures standardized to an optical density at 600 nm of 1.0. Images were taken after 20 h incubation at 37 °C. Data shown are the mean ± SD of three independent experiments.
Since E. coli ATCC 25,922 cell walls have flagella, their swimming motility can be measured in LB medium containing 0.3% agar. E. coli ATCC 25,922 bacteria were incubated overnight at 37 °C in a shaker until the OD600 = 1.0, then inoculated into 0.3% agar medium containing 1 µM, 2 µM, 4 µM or 8 µM of antimicrobial peptide and incubated again overnight at 37 °C. The swimming motility for each was then measured; each experiment was repeated three times.

[7] = system: oxazolone-induced ear edema; assay: Oxazolone-induced skin inflammation (allergic dermatitis model); conditions: for ear thickness and ear punch weight: mice, topical 0.5%, 1% or 2% w/v on right ear, 24 h after treatment
Description: ICR mice (male, 4–6 weeks old, and 18–22 g) were obtained from the Experimental Animal Center of Harbin Medical University.
4-Ethoxymethylene-2-phenyl-2-oxazolin-5-one (oxazolone, OXA) was used to induce ear edema in mice [66]. […] The fur was clipped from each animal’s abdomen the day before the experiment was conducted. On the day of the experiment (day 0), 50 ul 3% oxazolone induction solution (prepared in a 5:1 (v/v) mixture of acetone: corn oil carrier) was applied to all mice as a single topical application to the shaved abdomen. After 5 days, 50 µL of 1% oxazolone challenge solution (prepared in acetone) was applied as a single topical application to the dorsal area of the right ear for 1 h. Of the peptide solution, vehicle control or positive control (dexamethasone) solution 20 µL was applied topically to the dorsal area of the right ear. The left ear was used as a control. 24 h later, the mice were euthanized by cervical dislocation under ether anesthesia, and two ear punches (6 mm, i.d.) were collected and weighed. The degree of edema and the increase in ear thickness were determined by the increase in the weight and thickness of the right ear punch when compared with that of the left ear.
(4) Ear weight increase %=[Right ear weight (mg)− Left ear weight (mg)]/Left ear weight (mg)× 100%
(5) Increase of the ear thickness% =Right ear thickness (mm)−Left ear thinkcess (mm)/Left ear thickness×100%
Mouse ear tissues were ground in liquid nitrogen and 1 mL of Trizol was added. The total RNA content in each group of ears was extracted using the conventional Trizol method. qRT-PCR was used to measure the mRNA level of inflammatory cytokines TNF-α, IL-6 and IL-1β in mouse ear tissues. One microgram total of RNA was reverse transcribed using M-MLV reverse transcriptase (Takara, Japan). qRT-PCR was performed using a SYBR Green Mix kit (Takara, Japan) with a 7500 Real-Time PCR system according to the manufacturer’s instructions. The mRNA expression levels were normalized to β-actin using the (2^−∆∆Ct) method. The gene expression was normalized to the corresponding mGAPDH level. […]

[8] = system: human red blood cells (hRBCs); assay: Hemolysis assay; format: cell-based; conditions: red cells of human, 1 h
Description: Figure 2 (A) Hemolytic activity of the engineered peptides against human red blood cells (hRBCs). The hRBCs were incubated with equal amounts of the respective peptides dissolved in PBS for 1 h at 37 °C. (B) Cytotoxicity of the engineered peptides against RAW264.7. […] Data shown are three independent experiments.
The hemolytic activity of the peptides is determined by measuring the amount of hemoglobin released during the lysis of human erythrocytes at different concentrations of AMPs. Briefly, fresh, healthy human red blood cells (hRBCs) were collected and then washed three times with phosphate-buffered saline (PBS) buffer (pH 7.2) and centrifuged at 1000× g for 5 min. Each 50 µL sample of hRBCs was incubated with 50 µL of the respective peptide dissolved in PBS in a well of a 96-well plate for 1 h at 37 °C. After incubation, the samples were centrifuged at 1000× g for 5 min and the supernatants (50 μL) were transferred to a new 96-well microplate. The release of hemoglobin was measured by monitoring the OD at 570 nm (Tecan, Salzburg, Austria). Negative (hRBCs without AMP treatment) and positive (hRBCs treated with 0.1% TritonX-100) controls were used. The concentration of peptide that caused 5% hemolysis was considered the minimal hemolysis concentration (MHC). The test was repeated three times. The percent hemolysis was calculated using the following formula:(2) Percent hemolysis=A−A0/At−A0× 100% A0 and At represent 0% and 100% hemolysis as measured in 10 mM PBS and 0.2% Triton X-100, respectively.

| Structure (SMILES) | MIC [1] | MIC [2] | percentage of PI-positive cells ([3]; 1/2× MIC (OIR3 1 µM, GS 2 µM)) | percentage of PI-positive cells ([3]; 1× MIC (OIR3 2 µM, GS 4 µM)) | percentage of PI-positive cells ([3]; 2× MIC (OIR3 4 µM, GS 8 µM)) | binding of LPS to immobilized peptide (SPR) [4] | pGM (+), geometric mean of the MICs against gram-positive strains [5] | inhibition of swimming motility [6] | ear thickness and ear punch weight [7] | MHC5, minimum hemolytic concentration that induced ≥5% hemolysis [8] | expression of mRNA of TNF-α, IL-1β and IL-6 in mouse ear tissue ([7]; qRT-PCR, oxazolone-induced skin inflammation) |
| --- | --- | --- | --- | --- | --- | --- | --- | --- | --- | --- | --- |
| CC(C)C[C@@H]1NC(=O)[C@H](CCCN)NC(=O)[C@H](C(C)C)NC(=O)[C@@H]2CCCN2C(=O)[C@@H](Cc2ccccc2)NC(=O)[C@H](CC(C)C)NC(=O)[C@H](CCCN)NC(=O)[C@H](C(C)C)NC(=O)[C@@H]2CCCN2C(=O)[C@@H](Cc2ccccc2)NC1=O [GS, gramicidin S, reference compound] (cyclo(V[Orn]L[dF]PV[Orn]L[dF]P)) | 4 µM (≈ 4.57 µg/mL) | 4 µM (≈ 4.57 µg/mL) | 7.3% | 37.8% | 93.3% | weak binding to LPS at high concentrations and almost no binding at the low concentrations | 2 µM | almost no inhibition | increased | 8 µM | – |
| CC[C@H](C)[C@@H]1NC(=O)[C@H](CCCNC(=N)N)NC(=O)[C@H]([C@@H](C)CC)NC(=O)[C@@H]2CCCN2C(=O)[C@H](CCCNC(=N)N)NC(=O)[C@H]([C@@H](C)CC)NC(=O)[C@H](CCCNC(=N)N)NC(=O)[C@H]([C@@H](C)CC)NC(=O)[C@H](CCCNC(=N)N)NC(=O)[C@H]([C@@H](C)CC)NC(=O)[C@@H]2CCCN2C(=O)[C@H](CCCNC(=N)N)NC(=O)[C@H]([C@@H](C)CC)NC(=O)[C@H](CCCNC(=N)N)NC1=O [OIR3] (cyclo(IRIRIRPIRIRIRP)) | 2 µM (≈ 3.62 µg/mL) | 2 µM (≈ 3.62 µg/mL) | 25% | 62% | 76.4% | rapidly binds | 4.0 µM | significantly inhibit | significantly reduced | >128 µM | significantly down-regulated |
